≈ marks a conversion by molar mass, not a printed value.
How the values were obtained:
[1] = Solubility of compounds (II), (III) and (IV) compared with products (a) and (b); details: for solubility: aqueous buffer
[2] = tested on: human tumor line HOS (human osteosarcoma, ATCC); experiment: Orthotopic xenogeneic murine model of osteolytic osteosarcoma (paratibial injection of HOS): tumor volume and radiographic evaluation; format: in vivo, immunosuppressed mice; details: for Size of extraosseous tumors in relation to control group and vector 5 and/or doxorubicin groups: 25 μmol/kg 2x/wk intraperitoneally, HOS tumor in mice; for Fractures of the tibial metaphysis: Day 27, radiography, 90% of control animals have fractures; for Bone lesions (metaphyseal fractures, alteration of cortical integrity, new formation of ectopic bone): radiographic evaluation, compared with control and other groups
Experimental: The antitumor activity of compounds (II) and (III) according to the invention was evaluated in an orthotopic, xenogeneic murine model of osteolytic osteosarcoma induced by paratibial injection of the human tumor line HOS (human osteosarcoma, ATCC) in immunosuppressed mice. The activity of the molecules according to the invention was compared with that of the two main subunits comprising them (doxorubicin and vector 5) alone or in combination. The treatments, on 10 animals per group, began the day following tumor induction and were administered intraperitoneally 1 to 2 times per week for 5 weeks. Tumor volumes were measured twice per week using a slide caliper and radiographic evaluation was carried out once per week. Tumor volume, expressed in mm^3, is calculated according to the following formula: V=(L×l^2)/2 (L and l, expressed in mm, correspond to the large length and the small length of the tumor, respectively).
The following treatment groups were thus studied, each on 10 mice: […]

[3] = Toxicity in mice (weight loss, cardiotoxicity, maximum usable dose); details: for Dose giving similar weight loss, relative to doxorubicin alone (maximum usable dose study): mice, intravenously or intraperitoneally
[4] = 2 mg/ml solution of TRIS in water

SMILES | Solubility in 2 mg/ml solution of TRIS in water [1, 4] | Solubility in DPBS or water ([1]; DPBS or water) | Size of extraosseous tumors in relation to control group and vector 5 and/or doxorubicin groups [2] | Fractures of the tibial metaphysis [2] | Bone lesions (metaphyseal fractures, alteration of cortical integrity, new formation of ectopic bone) [2] | Dose giving similar weight loss, relative to doxorubicin alone (maximum usable dose study) [3] [times higher] | solubility ([1]; DPBS or water) [mM] | further results
COc1cccc2c1C(=O)c1c(O)c3c(c(O)c1C2=O)C[C@@](O)(/C(CO)=N/NC(=S)N/N=C/c1cccc(OCCCN(C)CCC(O)(P(=O)(O)O)P(=O)(O)O)c1)C[C@@H]3O[C@H]1C[C@H](N)[C@H](O)[C@H](C)O1 [(a)] | insoluble | insoluble |  |  |  |  |  | Solubility in organic solvents ([1]; ethanol or dimethylsulfoxide or mixtures thereof with water): insoluble; Solubility in water with organic or inorganic additives ([1]; water with organic additives (Tween, PEG, glycerin, glucose, TRIS) or inorganic additives (sodium carbonate or bicarbonate)): insoluble
COc1cccc2c1C(=O)c1c(O)c3c(c(O)c1C2=O)C[C@@](O)(/C(CO)=N/NC(=S)N/N=C/c1cccc(OCCCN(C)CCC(O)(P(=O)(O)O)P(=O)(O)O)c1)C[C@@H]3O[C@H]1C[C@H](NC(=O)CCC(=O)O)[C@H](O)[C@H](C)O1 [(b)] | poorly soluble | insoluble |  |  |  |  |  | solubility [1, 4]: ~1 mM (≈ 1.13 mg/mL)
COc1cccc2c1C(=O)c1c(O)c3c(c(O)c1C2=O)C[C@@](O)(/C(CO)=N/NC(=S)NNC(=O)CN(CCN(CC(=O)O)CC(=O)NNC(=S)N/N=C/c1cccc(OCCCN(C)CCC(O)(P(=O)(O)O)P(=O)(O)O)c1)CC(=O)O)C[C@@H]3O[C@H]1C[C@H](N)[C@H](O)[C@H](C)O1 [Compound (II)] |  |  | significantly reduce | not detected in any of the mice | reduce | 13 | ~255 (≈ 354 mg/mL) | Animals with a tumor greater than 1500 mm^3 in volume ([2]; Day 32, 10 mice per group): only one mouse; Signs of toxicity (very early weight loss, cardiotoxicity) ([3]; 20 μmol/kg (molar equivalent dose to doxorubicin 12 mg/kg)): do not induce these signs of toxicity
COc1cccc2c1C(=O)c1c(O)c3c(c(O)c1C2=O)C[C@@](O)(/C(CO)=N/NC(=S)NNCc1cccc(OCCCN(C)CCC(O)(P(=O)(O)O)P(=O)(O)O)c1)C[C@@H]3O[C@H]1C[C@H](N)[C@H](O)[C@H](C)O1 [Compound (III)] |  |  | significantly reduce | not detected in any of the mice | reduce | 13 | ~160 (≈ 164 mg/mL) | 
COc1cccc2c1C(=O)c1c(O)c3c(c(O)c1C2=O)C[C@@](O)(/C(CO)=N/OCC(O)(P(=O)(O)O)P(=O)(O)O)C[C@@H]3O[C@H]1C[C@H](N)[C@H](O)[C@H](C)O1 [Compound (IV)] |  |  |  |  |  | 13 | ~315 (≈ 240 mg/mL) | 
COc1cccc2c1C(=O)c1c(O)c3c(c(O)c1C2=O)C[C@@](O)(C(=O)CO)C[C@@H]3O[C@H]1C[C@H](N)[C@H](O)[C@H](C)O1 [doxorubicin] |  |  |  |  | equivalent to those of the control group |  |  | Outcome after Day 27 (tumor volume) ([2]; after Day 27): had to be euthanized because of excessively large tumor volumes; Weight loss ([3]; dose 12 mg/kg (20 μmol/kg), requiring euthanasia after 2 weeks of treatment): > 10%

Reference: US10238671B2, “Hydrosoluble hydroxybisphosphonic derivatives of doxorubicin” (Atlanthera, priority 2014, dated 2019)
